Active and inactive are the calls of the source. The rule behind the calls is not given here.
Columns and labels:
HT-29 = assay: cells; conditions: Homo sapiens, HT-29, 72 h
HCT-116 [1] = assay: cells; conditions: Homo sapiens, HCT-116, 72 h
SW480 [2] = assay: cells; conditions: Homo sapiens, SW480, 72 h
HEK293 = assay: Inhibition of interaction of beta-catenin (unknown origin) transfected in Wnt-activated HEK293 cells/Tcf4 assessed as decrease in transactivation of canonical Wnt signaling by TOPflash luciferase reporter assay; conditions: Homo sapiens
HCT-116 [3] = assay: Cytotoxicity against human HCT116 cells assessed as inhibition of cell growth after 72 hrs by MTS assay
SW480 [4] = assay: Cytotoxicity against human SW480 cells assessed as inhibition of cell growth after 72 hrs by MTS assay
SW480 [5] = assay: Decrease in c-myc mRNA expression in human SW480 cells at 2 uM after 24 hrs by quantitative real-time PCR analysis; assay type: functional; conditions: SW480, 24 h
SW480 [6] = assay: Decrease in cyclin D1 mRNA expression in human SW480 cells at 2 uM after 24 hrs by quantitative real-time PCR analysis; assay type: functional; conditions: SW480, 24 h
SW480 [7] = assay: Decrease in AXIN2 mRNA expression in human SW480 cells at 2 uM after 24 hrs by quantitative real-time PCR analysis; assay type: functional; conditions: SW480, 24 h
SW480 [8] = assay: Effect on HPRT mRNA expression in human SW480 cells after 24 hrs by quantitative real-time PCR analysis; assay type: functional, cell-based
SW480 [9] = assay: Effect on beta-catenin degradation in human SW480 cells assessed as beta-catenin protein expression after 24 hrs by western blot analysis; assay type: functional, cell-based
[10] = system: beta-catenin R469A mutant/Tcf4 (human); assay: Inhibition of human beta-catenin R469A mutant interaction with Tcf4 by fluorescence polarization competitive inhibition assay
[11] = Inhibition of interaction of beta-catenin (unknown origin) transfected in Wnt-activated HEK293 cells/Tcf4 assessed as decrease in transactivation of canonical Wnt signaling by TOPflash luciferase reporter assay; conditions: Homo sapiens
Catenin beta-1 [12] = biological target: T1, Catenin beta-1 (Homo sapiens, UniProt P35222); assay: Inhibition of human wild-type beta-catenin (residues 138-686)/C-terminally fluorescein labeled human wild-type Tcf4 (residues 7-51) interaction after […] by FP competitive inhibition assay
T1 sequence (P35222 whole entry): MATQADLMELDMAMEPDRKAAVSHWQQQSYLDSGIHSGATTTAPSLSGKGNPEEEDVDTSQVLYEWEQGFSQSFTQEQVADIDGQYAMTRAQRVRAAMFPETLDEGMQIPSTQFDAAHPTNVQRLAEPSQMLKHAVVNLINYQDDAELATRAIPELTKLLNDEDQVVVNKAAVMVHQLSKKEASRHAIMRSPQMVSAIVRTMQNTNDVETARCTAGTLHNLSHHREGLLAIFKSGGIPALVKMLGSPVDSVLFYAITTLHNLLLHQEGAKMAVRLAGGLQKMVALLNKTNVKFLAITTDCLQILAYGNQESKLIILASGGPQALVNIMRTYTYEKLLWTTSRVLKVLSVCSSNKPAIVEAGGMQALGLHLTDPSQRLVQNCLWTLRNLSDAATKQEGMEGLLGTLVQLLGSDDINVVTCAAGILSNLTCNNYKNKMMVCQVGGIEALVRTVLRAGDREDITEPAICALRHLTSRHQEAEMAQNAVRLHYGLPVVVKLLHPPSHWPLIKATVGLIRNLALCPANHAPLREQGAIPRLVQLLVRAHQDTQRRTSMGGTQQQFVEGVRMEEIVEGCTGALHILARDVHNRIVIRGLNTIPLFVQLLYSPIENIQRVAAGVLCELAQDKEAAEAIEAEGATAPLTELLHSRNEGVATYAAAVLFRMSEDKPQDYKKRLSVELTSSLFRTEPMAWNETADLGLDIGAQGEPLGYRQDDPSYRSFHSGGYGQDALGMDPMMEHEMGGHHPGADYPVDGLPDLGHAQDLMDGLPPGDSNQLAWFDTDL

Catenin beta-1 [13] = biological target: T1, Catenin beta-1; assay: Inhibition of human wild-type beta-catenin (residues 138-686)/C-terminally fluorescein-labeled human E-cadherin (residues 819-873) interaction by FP competitive inhibition assay
Catenin beta-1 [14] = biological target: T1, Catenin beta-1; assay: Inhibition of human wild-type beta-catenin (residues 138-686)/C-terminally fluorescein-labeled human APC-R3 (residues 1477-1519) interaction by FP competitive inhibition assay
[15] = Inhibition of beta-catenin/Tcf4 interaction in human SW480 cells assessed as decrease in transactivation of canonical Wnt signaling by TOPflash luciferase reporter assay

| IC50 (HCT-116 [1]) [µM] | IC50 (SW480 [2]) [µM] | IC50 [11] [µM] | SMILES | inhibition (HEK293) | inhibition (HCT-116 [3]) | inhibition (SW480 [4]) | other results |
| --- | --- | --- | --- | --- | --- | --- | --- |
|  |  |  | COC(=O)CCn1c2ccccc2c2nc3nonc3nc21 | inactive | inactive | inactive |  |
| 0.02 | 52 |  | N#CCCn1c2ccccc2c2nc3nonc3nc21 |  |  |  |  |
|  |  |  | Nc1nonc1C(=O)N/N=C1/c2ccccc2-c2nc3nonc3nc21 |  |  |  | inhibition at 2 µM (SW480 [5]): > 50%; inhibition at 2 µM (SW480 [6]): > 50%; inhibition at 2 µM (SW480 [7]): > 50%; Activity (SW480 [8]): inactive; Activity (SW480 [9]): inactive |
|  |  |  | Nc1nonc1NC(=O)Cn1c2ccccc2c2nc3nonc3nc21 | inactive | inactive | inactive | Ki [10]: 42 µM |
|  |  | > 100 | O=C(O)c1cc2nc(-c3ccc4c(c3)OCO4)c(-c3ccc4c(c3)OCO4)nc2cc1O |  |  |  |  |
|  |  |  | COc1c(C[C@@H](C)OC(=O)Oc2ccc(O)cc2)c2c3c(C[C@@H](C)OC(=O)c4ccccc4)c(OC)c(=O)c4c(O)cc(OC)c(c5c(OC)cc(O)c(c1=O)c52)c43 [CALPHOSTIN C] |  |  |  | IC50 (Catenin beta-1 [12]): 77 µM; IC50 (Catenin beta-1 [13]): 38 µM; IC50 (Catenin beta-1 [14]): 110 µM |
| 31 | > 200 | 26 | c1ccc2c(c1)c1nc3nonc3nc1n2CCc1nn[nH]n1 |  |  |  | Activity (SW480 [8]): inactive |
|  |  |  | CCOC(=O)CCCn1c2ccccc2c2nc3nonc3nc21 | inactive | inactive | inactive |  |
|  |  | 39 | O=C(O)c1cc(-c2ccc(Oc3ccc(Cl)cc3)cc2)on1 |  |  |  |  |
| 180 | 240 |  | COc1ccc(/C=C2/SC(=S)N(CCCC(=O)O)C2=O)cc1OC |  |  |  | IC50 (HT-29): 290 µM; IC50 [15]: 4 µM |
|  |  |  | O=C(O)CCCn1c2ccccc2c2nc3nonc3nc21 | inactive | inactive | inactive |  |
| 22 | 38 | > 100 | O=C(O)c1ccc2nc(-c3ccc(Cl)cc3)c(-c3ccc(Cl)cc3)nc2c1 |  |  |  | IC50 (HT-29): 41 µM |

| SMILES | IC50 (HCT-116 [1]) [µM] | IC50 (SW480 [2]) [µM] | IC50 [11] [µM] | inhibition (HEK293) | inhibition (HCT-116 [3]) | inhibition (SW480 [4]) | other results |
| --- | --- | --- | --- | --- | --- | --- | --- |
| COc1c(C[C@H](C)O)c2c3c(C[C@H](C)O)c(OC)c(=O)c4c(O)cc5c(c6c(cc(O)c(c1=O)c62)OCO5)c43 | 1.2 | 5.5 |  |  |  |  | IC50 (HT-29): 1.8 µM |

— ChEMBL document CHEMBL3588842, “Discovery of Selective Small-Molecule Inhibitors for the β-Catenin/T-Cell Factor Protein-Protein Interaction through the Optimization of the Acyl Hydrazone Moiety” (J Med Chem, 2015)
